These results are taken from US11331290B2, “Niclosamide for the treatment of cancer metastasis” (Max-Delbrück-Centrum für Molekulare Medizin in der …, priority 2011, dated 2022).

One assay concerns S100A4 promoter. In words: High-throughput screening, S100A4 promoter-driven luciferase reporter. The assay is classed as cell-based, human. Particulars: HCT116-S100A4p-LUC cells, 20-concentration rescreen, 2-fold dilutions from 100 μM, 24 h. Here is the method: HCT116-S100A4p-LUC colon cancer cells stably expressing a human S100A4 promoter-driven luciferase reporter gene construct were screened with the Library of Pharmacologically Active Compounds (LOPAC; FIG. 1, A). The LOPAC Library represents a collection of 1280 well characterized small molecule inhibitors. […] In parallel, cell viability was determined using the Alamar blue assay to evaluate whether some of the inhibitory effects were caused by cytotoxicity (data not shown). […]
For high-throughput screening 2.5×10^3 cells per well of HCT116-S100A4p-LUC cells were seeded into white opaque 384-well plates (Perkin Elmer, Waltham, Mass.) using the BIOMEK 2000 automatic pipetting system (Beckman Coulter, Brea, Calif.). […] Following compound treatment, luciferase expression was determined using Britelite reagent (Perkin Elmer) in a Wallac Victor reader (Perkin Elmer). In parallel, cytotoxicity of the compounds was measured in clear polystyrene 384-well plates (Costar) by Alamar blue cytotoxicity assay (Sigma-Aldrich). […] Plates were then read on a Wallac Victor reader at an excitation wavelength of 530 nm and emission wavelength of 590 nm. For both luminescence and Alamar blue fluorescence data, eight vehicle control wells were averaged and test compound results (single well) expressed as percent of control. […]
In general terms: Reporter assays use an easily measured gene product as a stand-in for the process of interest.

Assay [1] has as its system HCT116-vector cells and HCT116-S100A4 cells. As to the kind of experiment: Anchorage-dependent cell proliferation (MTT). The assay is classed as cell-based, human. To be noted: 1 μM daily. Here is the method:
For cell proliferation determination of HCT116, SW620, LS174T, SW480 and DLD-1 cells 2×10^3 cells were seeded in 96-well-plates (for each day one plate) and were given 24 hours to attach to the bottom of the well. Cells were from then on treated daily with 1 μM niclosamide or the respective amount of DMSO. For determination of viable cells 3-(4,5-dimethyl-2-thiazol)-2,5-diphenyl-2H-tetrazolium bromide (MTT; Sigma) was added to a final concentration of 0.5 mg per mL and incubated for 3 hours at 37° C. and 5% CO2 in a humidified incubator. […] Crystallized MTT was resolved by 10% SDS in 10 mM HCl and the absorption was measured at 560 nm. […] The average MTT metabolisation was determined of two independent experiments each performed in triplicate.
(A) Cell migration of HCT116-vector and HCT116-S100A4 cells exposed to niclosamide treatment. Cells were treated with 1 μM niclosamide for 24 hours and migration rates were measured with Boyden chamber assay. […] Cells were treated with 1 μM niclosamide for 24 hours and cell invasion was determined by Boyden chamber assay. (C) Directed migration of HCT116-vector and HCT116-S100A4 cells exposed to niclosamide treatment analyzed by wound healing assay. […] Cells were treated daily with 1 μM niclosamide and cell viability was determined with MTT assay. […] (F) Quantification of colonies formed. […]

SMILES strings stand for the structures.

For `O=C(Nc1ccc([N+](=O)[O-])cc1Cl)c1cc(Cl)ccc1O` [niclosamide, 2′,5-dichloro-4′-nitrosalicylanilide], in the assay with S100A4 promoter, the “inhibition of reporter gene expression” value is given as “strongest candidate”. Moreover, the anchorage-dependent cell proliferation entry in assay [1] is “reduction of cell proliferation in both cell lines”.
